We go through one compound from patent publication US7893203B2, “Protein involved in G protein-coupled receptor mediated signal transduction with ability to mediate signal transduction from a dopamine D1 receptor or an adenosine A2A receptor to an adenylate cyclase and utilization thereof” (Sumitomo Chemical Company, Ltd., priority 2002, dated 2011).

Each structure is given as a SMILES string.

This experiment deals with T1, adenosine A2a receptor (Homo sapiens, UniProt P29274).
T1 construct: expressed in transfected cells; host or cells: CHO cells, transient lipofection
In words: Screening of adenosine A2a receptor antagonist using change in cAMP level as index. In kind it is cell-based. Conditions: 10 μM test substance with 10 μM adenosine, CHO cells with A2a receptor and Gm1, cAMP level. The method, then: Then, 10 μM of adenosine as a GPCR ligand and 10 μM of a test substance (DMPX) were added and incubated at 37° C. for 30 minutes.
A substance which gave a cAMP level percentage of 85% or less upon contact of the cell with the ligand and the test substance was selected as a signal transduction inhibitor (antagonist), on the basis of the cAMP level with no contact being 0% and the cAMP level with the contact of the cell only with the ligand being 100% (FIG. 4).

T1 sequence (P29274 whole entry): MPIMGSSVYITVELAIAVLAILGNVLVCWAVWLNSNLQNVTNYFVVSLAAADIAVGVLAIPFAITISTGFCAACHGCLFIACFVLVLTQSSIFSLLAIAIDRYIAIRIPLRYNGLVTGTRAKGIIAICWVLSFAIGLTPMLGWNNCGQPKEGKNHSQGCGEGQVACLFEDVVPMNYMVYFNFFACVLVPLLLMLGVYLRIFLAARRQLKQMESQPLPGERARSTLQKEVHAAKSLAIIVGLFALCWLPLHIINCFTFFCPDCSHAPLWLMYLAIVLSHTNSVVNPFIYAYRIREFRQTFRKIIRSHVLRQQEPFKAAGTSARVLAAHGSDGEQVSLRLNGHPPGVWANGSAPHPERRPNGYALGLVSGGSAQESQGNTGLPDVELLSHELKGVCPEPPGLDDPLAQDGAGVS

On to `C#CCn1c(=O)c2c(ncn2C)n(C)c1=O` [DMPX], for which the “adenosine A2a receptor antagonistic effects (FIG. 4)” value is “antagonistic effects”.
